Test results reported in patent US10736932B2, “Small molecule Ras inhibitors” (Ohio State Innovation Foundation, priority 2014, dated 2020).
“Also recorded” adds a separate entry of the source. Square brackets hold non-standard residues; d marks the D form. Peptide text beside a SMILES is read from it. Phe(4-F) = N[C@@H](Cc1ccc(F)cc1)C(=O)O; d2Nal = N[C@H](Cc1ccc2ccccc2c1)C(=O)O; dNle = CCCC[C@@H](N)C(=O)O

Legend:
[1] = tested on: phosphorylation of Akt, Mek and Erk in H1975 cells; test: Western blot of Ras signaling in H1975 cells; type: cell-based; details: 10 μM, 10 min
Text: (§1) In the MTT assay, A549 cells were also found to be more resistant to the Ras inhibitors than other cell lines.
(§2) In H1975 the EGFR is also mutated. Certain mutated EGFR cannot be inhibited with Tarceva® due to the resistance conferring T790M mutation which precludes binding of the drug.

[2] = tested on: actin filaments in A549 cells; test: Actin filament staining (phalloidin-FITC) by confocal microscopy; type: cell-based; details: 10 μM, 15 min
Text: The inhibition of Ras affects proliferation and survival of cells. […] These morphological changes are consistent with a collapse of the actin cytoskeleton. The dephosphorylation of cofilin activates the actin filament severing activity of this protein. The severing of actin filaments results in the collapse of the actin cytoskeleton. […] Without actin filaments, cells tend to round up and lose attachment to the substrate.

[3] = tested on: phosphorylation of Akt, Mek and Erk in A549 cells; test: Western blot of Ras signaling in A549 cells; type: cell-based; details: 10 μM, 10 min
[4] = biological target: T1, K-Ras / Raf RBD interaction (Homo sapiens, UniProt P01116, G12V); test: HTRF assay, inhibition of Ras-Raf RBD interaction; type: binding;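 further: HTRF signal read after overnight incubation of the assay plate at 4 °C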
T1 construct: The G12V mutant K-Ras (amino acids 1-185) was recombinantly fused; GST (N, cleaved yes); made in house; host or cells: Escherichia coli BL21
Description: Recombinant HA-tagged K-Ras (no GST, 50 nM), GST-Raf RBD (50 nM each), a monoclonal anti-HA antibody labeled with acceptor d2 (2 μg/mL), a monoclonal anti-GST antibody labeled with donor Tb (0.25 μg/mL) (Cisbio), and increasing concentrations of cyclic peptide (0-20 μM) were mixed inPBS (total volume of 20 μL) in a 384-well plate. The plate was incubated overnight at 4° C. and the HTRF signal was measured on a Molecular Devices Spectramax M5 or a Tecan infinite M1000 Pro plate reader. The data were analyzed by Prism 6.0 from Graphpad Software, Inc. (La Jolla, Calif.) and IC50 values were obtained by fitting the data to dose-response-inhibition curve.

[5] = tested on: EGFR phosphorylation; test: IP/Western blot of EGFR phosphorylation; type: cell-based; details: 13 μM
Text: (§3) Two well characterized Ras effector pathways are the Raf-Mek-Erk and PI3K-Akt signaling pathways (Karnoub, A. E. et al. (2008) Nat Rev. Mol. Cell Biol. 9:517). To determine whether the cyclic peptides inhibited the intracellular Ras activity, Applicants monitored the phosphorylation levels of Mek, Erk, and Akt in cells before and after treatment with the Ras inhibitors. […] In order to rule out that the observed downregulation of P-Mek, P-Erk and P-Akt is caused by inhibition of EGFR signaling, the effect of Cyclosrasin 9A5 on the phosphorylation of the EGFR was tested by performing an IP/Western Blot experiment (FIG. 3E). Active, signaling EGFR is highly autohophosphorylated.

[6] = tested on: phosphorylation of Akt, Mek and Erk in H1650 cells; test: Western blot of Ras signaling in H1650 cells; type: cell-based; details: 10 μM, 10 min
Text: as §1, §2

[7] = tested on: phosphorylation of Akt, Mek and Erk in H1299 cells; test: Western blot of Ras signaling (Akt, Mek, Erk phosphorylation) in H1299 cells; type: cell-based
Text: as §3, §1

[8] = tested on: A549 cells; test: Cellular uptake of FITC-labeled peptides (live-cell confocal microscopy, FACS); details: Gln8 replaced with L- or D-arginine

T1 sequence (P01116 1-185 isoform P01116-2 G12V): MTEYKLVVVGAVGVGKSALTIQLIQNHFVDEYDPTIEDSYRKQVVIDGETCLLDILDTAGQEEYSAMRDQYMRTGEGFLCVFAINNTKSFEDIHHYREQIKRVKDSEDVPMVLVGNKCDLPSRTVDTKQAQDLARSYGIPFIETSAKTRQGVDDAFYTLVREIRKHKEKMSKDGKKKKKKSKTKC

## CCCC[C@H]1NC(=O)[C@H](Cc2ccc(F)cc2)NC(=O)[C@H](CCCNC(=N)N)NC(=O)[C@@H](Cc2ccc3ccccc3c2)NC(=O)[C@H](CCCNC(=N)N)NC(=O)[C@H](CCCNC(=N)N)NC(=O)[C@H](CCCNC(=N)N)NC(=O)[C@@H](C)NC(=O)[C@H]([C@@H](C)O)NC(=O)[C@H](Cc2c[nH]c3ccccc23)NC(=O)[C@H](CCC(N)=O)NC1=O [Cyclorasin 9A5, (Trp-Thr-ala-Arg-Arg-Arg-nal-Arg-Fpa-nle-Gln)] (cyclo(WT[dA]RRR[d2Nal]R[Phe(4-F)][dNle]Q))
[1]
  Mek, Erk and Akt phosphorylation: almost completely abolished; also recorded: can be inhibited
[2]
  actin filaments in treated cells: absent
[3]
  Mek, Erk and Akt phosphorylation: significant Mek and Erk phosphorylation remained
[4]
  IC50: 120 nM
[5]
  EGFR phosphorylation level: does no affect; also recorded: no effect
[6]
  Mek, Erk and Akt phosphorylation: almost completely abolished; also recorded: can be inhibited
[7]; H1299 cells unstimulated with EGF, 10 μM for 10 min
  basal phosphorylation of Mek and Akt: inhibited
[7]; H1299 cells, 10 μM, 10 min
  Mek, Erk and Akt phosphorylation: almost completely abolished
[7]; H1299 cells, 13 μM, 5 min
  EGF-induced phosphorylation of Akt and Mek: significant reduction
[7]; H1299 cells, 13 μM, time course
  phosphorylation level of Erk: decreased, but to a lesser extent
[7]; H1299 cells, 13 μM, ≥10 min
  EGF-induced phosphorylation of Akt and Mek: completely abolished
[8]
  cell permeability relative to earlier peptides: improved cell permeability
